Assays:
[1] = dal-OUTCOMES: change in plasma lipids by rs1967309 genotype; assay type: in vivo, human; settings: for change in total cholesterol at 1 month: dalcetrapib arm
Experimental: All patients were following individualized programs to target LDL cholesterol levels of 100 mg per deciliter (2.6 mmol per liter) or lower by statin if tolerated and diet. No specific statin agent was specified, and patients were not excluded based on LDL cholesterol values. Patients with serum triglyceride levels of 400 mg per deciliter (4.5 mmol per liter) or higher were excluded. (Schwartz G G et al. N Engl J Med 2012; 367:2089-99) Eligible participants to the dal-Outcomes trial entered a single-blind placebo run-in period of approximately 4 to 6 weeks to allow for patients to stabilise and for completion of planned revascularisation procedures. At the end of the run-in period, eligible patients in stable condition were randomised in a 1:1 ratio to 600 mg of dalcetrapib or placebo on top of evidence-based medical care for acute coronary syndrome. Cardiovascular events were adjudicated by an independent clinical endpoint committee. For the pharmacogenomics study, 6338 patients were recruited from April 2008 through July 2010 at 461 sites in 14 countries and provided written informed consent to participate to the genetic study of the dal-OUTCOMES trial. DNA was extracted from whole blood. Following genomic data cleanup, samples from 5749 Caucasian patients were used for the discovery genome-wide association study (GWAS).
This effect was not observed in the placebo arm. […] During the dalcetrapib treatment period, GG carriers had overall slightly lower LDL-cholesterol levels (adjusted P=0.048; repeated measures analysis, FIG. 4).

[2] = target: T1, CETP (Oryctolagus cuniculus, UniProt P22687); settings: rabbits; cited from earlier work
T1 construct: host or cells: rabbits (in vivo; endogenous plasma CETP)
T1 sequence (P22687 2-497): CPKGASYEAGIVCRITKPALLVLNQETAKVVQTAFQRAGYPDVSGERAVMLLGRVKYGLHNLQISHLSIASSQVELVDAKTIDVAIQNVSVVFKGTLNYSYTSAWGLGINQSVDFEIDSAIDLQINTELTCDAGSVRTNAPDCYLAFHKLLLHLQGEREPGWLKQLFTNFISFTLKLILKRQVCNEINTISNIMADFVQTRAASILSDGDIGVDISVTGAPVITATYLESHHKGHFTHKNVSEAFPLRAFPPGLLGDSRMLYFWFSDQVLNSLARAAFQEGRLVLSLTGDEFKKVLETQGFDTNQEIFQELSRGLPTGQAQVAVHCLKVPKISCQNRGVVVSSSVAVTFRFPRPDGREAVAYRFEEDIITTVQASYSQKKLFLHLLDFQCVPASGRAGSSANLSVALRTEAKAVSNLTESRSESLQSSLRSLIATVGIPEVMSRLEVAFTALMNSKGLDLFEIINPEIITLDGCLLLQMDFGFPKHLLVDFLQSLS

[3] = rabbits; cited from earlier work
[4] = target: T2, CETP (Homo sapiens, UniProt P11597); settings: humans; cited from earlier work
T2 construct: host or cells: humans (in vivo; endogenous plasma CETP)
T2 sequence (P11597 18-493): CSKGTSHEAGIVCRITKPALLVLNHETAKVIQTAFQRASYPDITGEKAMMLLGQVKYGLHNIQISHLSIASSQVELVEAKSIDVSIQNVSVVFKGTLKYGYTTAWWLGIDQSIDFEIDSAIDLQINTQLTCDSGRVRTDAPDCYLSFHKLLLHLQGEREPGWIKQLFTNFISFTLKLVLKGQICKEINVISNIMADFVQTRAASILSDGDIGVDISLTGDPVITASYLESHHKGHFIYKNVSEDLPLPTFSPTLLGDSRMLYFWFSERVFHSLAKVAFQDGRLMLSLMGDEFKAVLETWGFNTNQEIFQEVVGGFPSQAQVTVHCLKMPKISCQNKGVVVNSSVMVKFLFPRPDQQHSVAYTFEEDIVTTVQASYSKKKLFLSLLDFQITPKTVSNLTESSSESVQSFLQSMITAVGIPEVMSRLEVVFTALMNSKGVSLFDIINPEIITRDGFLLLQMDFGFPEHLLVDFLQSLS

With CCC(CC)CC1(C(=O)Nc2ccccc2SC(=O)C(C)C)CCCCC1 [dalcetrapib, thioisobutyric acid S-(2-{[1-(2-ethyl-butyl)-cyclohexanecarbonyl]-amino}-phenyl) ester] the “change in total cholesterol at 1 month” value ([1]; rs1967309 AA) was 13.8 ± 24.0 mg/dL, the “change in total cholesterol at 1 month” value ([1]; rs1967309 AG) was 12.9 ± 30.3 mg/dL and the “change in total cholesterol at 1 month” value ([1]; rs1967309 GG) was 10.0 ± 23.3 mg/dL. For the same compound, the “change in LDL-cholesterol after 1 month of dalcetrapib treatment” value (shortened to “change in LDL-cholesterol after 1 month”) ([1]; rs1967309 AA) was “+0.6±21.0 mg/dl”, the “change in LDL-cholesterol after 1 month” value ([1]; rs1967309 AG) was -1.0 ± 20.0 mg/dL and the “change in LDL-cholesterol after 1 month” value ([1]; rs1967309 GG) was -2.0 ± 20.0 mg/dL. For the same compound, the CETP activity [2] was “inhibitor of CETP activity”, the LDL cholesterol [3] was “decrease LDL cholesterol” and the “plasma HDL cholesterol” value [3] was “increase plasma HDL cholesterol”. The CETP activity [4] was “inhibitor of CETP activity”.

From US12371748B2, “Genetic markers for predicting responsiveness to therapy with HDL-raising or HDL mimicking agent” (Hoffmann-La Roche Inc., priority 2014, dated 2025)
